From the Kinase Knowledgebase extract (Sharma et al. 2016)
“And” between values parts separate entries of the source, which are not always exact repeats. Equal values may be shown once.

Columns and labels:
PIK3CB = PIK3CB (UniProt P42338); experiment: Inhibition of PIK3CB Kinase Assay
PIK3CG (human) = PIK3CG (human) (UniProt P48736); experiment: Inhibition of PIK3CG Kinase Assay
Chain of PIK3CG (human) (P48736 whole entry, looked up): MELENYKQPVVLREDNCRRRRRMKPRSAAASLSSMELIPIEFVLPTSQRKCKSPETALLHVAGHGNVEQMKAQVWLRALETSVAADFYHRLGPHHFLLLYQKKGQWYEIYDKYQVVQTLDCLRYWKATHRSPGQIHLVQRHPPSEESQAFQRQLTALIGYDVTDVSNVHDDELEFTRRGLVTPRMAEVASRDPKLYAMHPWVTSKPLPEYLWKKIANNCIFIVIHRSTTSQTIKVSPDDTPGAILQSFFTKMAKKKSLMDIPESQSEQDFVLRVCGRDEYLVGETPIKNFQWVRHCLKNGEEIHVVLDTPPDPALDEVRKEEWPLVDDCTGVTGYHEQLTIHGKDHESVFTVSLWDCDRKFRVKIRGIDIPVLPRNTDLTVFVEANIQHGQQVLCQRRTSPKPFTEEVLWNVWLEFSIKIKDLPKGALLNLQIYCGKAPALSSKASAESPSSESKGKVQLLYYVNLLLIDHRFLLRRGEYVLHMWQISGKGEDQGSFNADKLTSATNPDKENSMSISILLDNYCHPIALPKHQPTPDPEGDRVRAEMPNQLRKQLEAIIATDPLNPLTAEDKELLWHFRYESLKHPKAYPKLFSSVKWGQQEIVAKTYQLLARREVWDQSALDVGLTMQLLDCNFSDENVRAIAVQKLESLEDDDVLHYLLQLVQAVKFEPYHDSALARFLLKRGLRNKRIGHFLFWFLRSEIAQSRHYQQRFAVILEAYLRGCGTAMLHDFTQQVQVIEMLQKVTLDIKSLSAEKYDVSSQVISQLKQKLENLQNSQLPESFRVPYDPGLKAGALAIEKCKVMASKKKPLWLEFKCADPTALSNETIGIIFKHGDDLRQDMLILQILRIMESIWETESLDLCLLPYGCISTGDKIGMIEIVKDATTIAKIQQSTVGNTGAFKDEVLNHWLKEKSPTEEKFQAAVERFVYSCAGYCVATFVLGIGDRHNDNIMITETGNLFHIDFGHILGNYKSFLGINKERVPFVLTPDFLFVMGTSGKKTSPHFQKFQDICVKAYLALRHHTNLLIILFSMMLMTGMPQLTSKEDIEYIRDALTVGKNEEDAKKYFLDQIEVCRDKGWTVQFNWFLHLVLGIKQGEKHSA

Chain of PIK3CB (P42338 whole entry, looked up): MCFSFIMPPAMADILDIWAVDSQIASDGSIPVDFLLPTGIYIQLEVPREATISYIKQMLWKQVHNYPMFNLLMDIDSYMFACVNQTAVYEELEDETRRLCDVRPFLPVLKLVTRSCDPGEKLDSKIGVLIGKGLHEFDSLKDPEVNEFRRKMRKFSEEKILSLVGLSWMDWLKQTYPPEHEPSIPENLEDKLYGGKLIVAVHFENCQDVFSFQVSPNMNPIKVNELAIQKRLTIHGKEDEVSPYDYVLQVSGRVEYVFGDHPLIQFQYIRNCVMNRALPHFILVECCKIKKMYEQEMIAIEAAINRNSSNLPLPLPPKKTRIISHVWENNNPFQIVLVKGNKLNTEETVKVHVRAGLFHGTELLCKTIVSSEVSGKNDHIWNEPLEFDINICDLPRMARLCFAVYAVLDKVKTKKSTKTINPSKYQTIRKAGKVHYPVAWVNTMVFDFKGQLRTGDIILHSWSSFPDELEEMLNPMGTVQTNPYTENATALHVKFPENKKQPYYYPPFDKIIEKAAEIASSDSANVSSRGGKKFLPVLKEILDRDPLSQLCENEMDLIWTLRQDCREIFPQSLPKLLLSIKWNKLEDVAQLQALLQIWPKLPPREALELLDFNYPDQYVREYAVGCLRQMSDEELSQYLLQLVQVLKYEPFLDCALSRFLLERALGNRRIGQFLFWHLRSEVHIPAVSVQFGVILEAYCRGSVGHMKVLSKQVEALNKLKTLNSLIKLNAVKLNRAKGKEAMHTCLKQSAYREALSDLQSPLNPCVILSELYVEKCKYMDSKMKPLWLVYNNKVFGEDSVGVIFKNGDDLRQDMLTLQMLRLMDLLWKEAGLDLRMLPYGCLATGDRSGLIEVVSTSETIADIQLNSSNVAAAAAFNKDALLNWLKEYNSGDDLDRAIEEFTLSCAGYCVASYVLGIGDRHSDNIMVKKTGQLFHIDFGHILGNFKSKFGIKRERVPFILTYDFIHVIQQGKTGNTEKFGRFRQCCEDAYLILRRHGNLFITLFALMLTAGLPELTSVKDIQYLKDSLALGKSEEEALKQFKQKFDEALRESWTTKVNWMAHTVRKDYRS

Structure (SMILES): O=C(NC1=Nc2ccccc2C2=NCCN12)c1cccnc1
- IC50 (PIK3CB): 100 to 500 nM
- IC50 (PIK3CG (human)): ≤ 100 nM

Structure (SMILES): COC(=O)CCCOc1ccc2c(c1OC)N=C(/C=C(\O)c1cccnc1)N1CCN=C21
- IC50 (PIK3CB): 500 to 2000 nM

Structure (SMILES): COc1c(OCCCC(=O)O)ccc2c1N=C(/C=C(\O)c1cccnc1)N1CCN=C21
- IC50 (PIK3CB): 100 to 500 nM
- IC50 (PIK3CG (human)): ≤ 100 nM

Structure (SMILES): COc1cc2c(cc1OC)C1=NCCN1C(/C=C(\O)c1cccnc1)=N2
- IC50 (PIK3CB): 500 to 2000 nM
- IC50 (PIK3CG (human)): ≤ 100 nM

Structure (SMILES): O=C(NC1=Nc2cc(O)ccc2C2=NCCN12)c1cccnc1
- IC50 (PIK3CB): 500 to 2000 nM
- IC50 (PIK3CG (human)): 100 to 500 nM

Structure (SMILES): O=C(NC1=Nc2ccc(F)cc2C2=NCCN12)c1cccs1
- IC50 (PIK3CG (human)): 500 to 2000 nM

Structure (SMILES): COc1c(OCCCC(=O)N2CCOCC2)ccc2c1N=C(/C=C(\O)c1cccnc1)N1CCN=C21
- IC50 (PIK3CB): 100 to 500 nM
- IC50 (PIK3CG (human)): ≤ 100 nM

Structure (SMILES): COc1cc2c(cc1OC)C1=NCCN1C(/C=C(\O)c1ccc3[nH]cnc3c1)=N2
- IC50 (PIK3CG (human)): ≤ 100 nM

Structure (SMILES): O=C(NC1=Nc2ccccc2C2=NCCN12)c1cccc([N+](=O)[O-])c1
- IC50 (PIK3CG (human)): > 2000 nM

Structure (SMILES): CC(=O)Nc1ccc(C(=O)NC2=Nc3cc(N4CCOCC4)ccc3C3=NCCN23)cc1
- IC50 (PIK3CG (human)): 100 to 500 nM

Structure (SMILES): CC(=O)Nc1ccc(C(=O)NC2=Nc3cc(N4CCOCC4)ccc3C3=NCCN23)cn1
- IC50 (PIK3CB): 500 to 2000 nM and 100 to 500 nM
- IC50 (PIK3CG (human)): ≤ 100 nM

Structure (SMILES): Cc1ccc2c(c1)N=C(/C=C(\O)c1cccnc1)N1CCN=C21
- IC50 (PIK3CG (human)): 100 to 500 nM

Structure (SMILES): O/C(=C\C1=Nc2cc(CN3CCOCC3)ccc2C2=NCCN12)c1cccnc1
- IC50 (PIK3CG (human)): 100 to 500 nM

Structure (SMILES): O=C(NC1=Nc2ccccc2C2=NCCN12)c1cnc2[nH]cnc2c1
- IC50 (PIK3CG (human)): ≤ 100 nM

Structure (SMILES): O/C(=C\C1=Nc2c(CN3CCOCC3)cccc2C2=NCCN12)c1cccnc1
- IC50 (PIK3CG (human)): 100 to 500 nM

Structure (SMILES): Cc1cccc2c1N=C(/C=C(\O)c1cccnc1)N1CCN=C21
- IC50 (PIK3CG (human)): 100 to 500 nM

Structure (SMILES): Nc1ccc(C(=O)NC2=Nc3ccccc3C3=NCCN23)cn1
- IC50 (PIK3CG (human)): ≤ 100 nM

Structure (SMILES): O=C(NC1=Nc2ccccc2C2=NCCN12)c1ccsc1
- IC50 (PIK3CG (human)): 100 to 500 nM

Structure (SMILES): COc1cc(OC)c2c(c1)C1=NCCN1C(/C=C(\O)c1cccnc1)=N2
- IC50 (PIK3CG (human)): ≤ 100 nM

Structure (SMILES): O=C(O)CCc1ccc2c(n1)N=C(/C=C(\O)c1cccnc1)N1CCN=C21
- IC50 (PIK3CG (human)): 100 to 500 nM

Structure (SMILES): COc1c(O)ccc2c1N=C(/C=C(\O)c1cccnc1)N1CCN=C21
- IC50 (PIK3CB): 500 to 2000 nM

Structure (SMILES): O=C(NC1=Nc2cc(OCCn3cccc3)ccc2C2=NCCN12)c1cccnc1
- IC50 (PIK3CB): 100 to 500 nM
- IC50 (PIK3CG (human)): 100 to 500 nM

Structure (SMILES): O/C(=C\C1=Nc2c(Br)cccc2C2=NCCN12)c1cccnc1
- IC50 (PIK3CG (human)): 100 to 500 nM

Structure (SMILES): O=C(NC1=Nc2ccccc2C2=NCCN12)c1c[nH]cn1
- IC50 (PIK3CG (human)): 100 to 500 nM

Structure (SMILES): Cc1ccc2c(c1)N=C(NC(=O)c1cccs1)N1CCN=C21
- IC50 (PIK3CG (human)): 100 to 500 nM

Structure (SMILES): COc1c(OCC(=O)N2CCOCC2)ccc2c1N=C(/C=C(\O)c1cccnc1)N1CCN=C21
- IC50 (PIK3CG (human)): ≤ 100 nM

Structure (SMILES): O/C(=C\C1=Nc2ccccc2C2=NCCN12)c1ccno1
- IC50 (PIK3CG (human)): 100 to 500 nM

Structure (SMILES): O=C(NC1=Nc2cc(Cl)ccc2C2=NCCN12)c1cccnc1
- IC50 (PIK3CG (human)): 100 to 500 nM

Structure (SMILES): COc1ccc2c(c1)N=C(NC(=O)c1ccc(N)nc1)N1CCN=C21
- IC50 (PIK3CG (human)): ≤ 100 nM

Structure (SMILES): Cc1ccncc1C(=O)NC1=Nc2ccccc2C2=NCCN12
- IC50 (PIK3CG (human)): 100 to 500 nM

Structure (SMILES): O/C(=C\C1=Nc2c(cccc2C(F)(F)F)C2=NCCN12)c1cccnc1
- IC50 (PIK3CG (human)): 100 to 500 nM

Structure (SMILES): CN(C=O)c1ccc(C(=O)NC2=Nc3ccccc3C3=NCCN23)cc1
- IC50 (PIK3CG (human)): > 2000 nM

Structure (SMILES): O=C(NC1=Nc2cc(N3CCCCC3)ccc2C2=NCCN12)c1cccnc1
- IC50 (PIK3CG (human)): 100 to 500 nM
